Experiment [1] concerns Preadipocytes 3T3-L1 ectopically expressing C/Ebpβ differentiated into brown adipocytes. Put plainly: 3T3-L1/C/Ebpβ differentiated brown adipocytes treated with PI3Ki. It counts as cell-based. As to conditions: 1 μM, 4 h. Here is the method: Mouse Embryonic Fibroblasts (MEFs) were isolated at E13.5 as previously described^42. For insulin stimulation, primary MEFs were serum starved (0% FBS) for 12 h, followed by 60 min incubation with PBS and then stimulated with 1 μg/ml of insulin (Sigma) during 30 min. For oncogenic transformation, primary MEFs were retrovirally transduced with pLXSN-neo-E6 and either pWZL-blast-middle-T (kindly provided by Jean Zhao, Dana-Farber Cancer Institute, Boston) or pBABE-puro-EGFRL858R (kindly provided by William Sellers and Matthew Meyerson, Addgene plasmid #11012)^43. After the corresponding drug selection 20,000 cells were plated in 10 cm diameter plates, and 2 weeks later were fixed and stained with 20% Giemsa. Immortalized brown adipocyte cell lines were obtained from the interscapular BAT of 3-5 day-old neonates, treated with and cultured as previously described^33. For immortalization, cultures were retrovirally transduced with Large-T antigen (in vector pBABE-puro, kindly provided by James de Caprio, Dana Farber Cancer Institute, Boston). For the reprogramming of 3T3-L1 adipocytes into brownadipocytes, we followed the method previously reported^50. Briefly, 3T3-L1 cells were retrovirally transduced with pBABE-puro-Cebpb (kindly provided by Roger R. Gomis, IRB, Barcelona). After drug selection with puromycin, cells were grown to confluence and subsequently cultured for 48 h with “differentiation medium” (DMEM 10% FBS, 20 nM insulin, 1 nM T3, 1 μM rosiglitazone, 0.5 mM isobutylmethylxanthine, 125 nM indomethacin, 5 μM dexamethasone). After this, cells were exposed to “maintenance medium” (DMEM 10% FBS, 20 nM insulin, 1 nM T3) for 4 days. […]
Total RNA from tissues or fibroblasts was extracted using TRIZOL (Invitrogen). Reverse transcription was performed using random primers and Ready-To-Go™ You-Prime First-Strand Beads (GE Healthcare). Quantitative real time-PCR was performed using DNA Master Sybr Green I mix (Applied Biosystems) in an ABI PRISM 7700 thermocycler (Applied Biosystem). […]

Experiment [2] relates to obese mice under high-fat diet. Put plainly: Adiposity by dual X-ray absorptiometry (DXA) in treated obese mice. The conditions noted are these: 2 weeks treatment. It counts as in vivo. As for the experimental part:
Mice treated as in FIG. 22 were subjected to dual X-ray absorptiometry (DXA) to determine their relative content of fat and lean tissues (the head and the bone mass is not measured). Determinations were performed one week before starting the treatment (day −7 or D−7), in the middle of the 2 weeks treatment (day 7 or D7, and at the end of the treatment (day 14 or D14). The content of fat is expressed as the percentage of fat relative to the combined fat and lean mass (upper panel). The absolute lean mass is also shown (lower panel). The two panels include data from the assay shown in FIG. 22, as well as the data from our previous assay with Compound A at 15 mg/kg. The percentage of fat and the lean mass of non-obese littermates (always fed with standard diet, SD) is shown in orange for reference.
Mice were fed either with a standard chow diet (Harlan Teklad 2018, 18% calories from fat) or, when indicated, with a high fat diet (Research Diets D12451, 45% of total calories from fat). To measure food intake, mice were housed in metabolic cages during 5 days, and food and water intake, as well as, the output of faeces and urine were measured during the last 4 days. Body composition (fat and lean content) was determined by Dual energy X-ray Absorptiometry (DXA) (Lunar PIXImus Densitometer, GE Medical Systems). […]

For another experiment, the system named is pre-brown adipocytes. Put plainly: Immortalized neonatal (pre-)brown adipocytes treated with PI3K inhibitors: phospho-Akt and Ucp1 mRNA. It counts as cell-based, mice. The conditions noted are these: 4 h. As for the experimental part:
Pre-brown adiposcytes were treated with Compound A or with the indicated PI3KI for 4 h. After this time, extracts were prepared for analysis of phospho-Akt (upper panels) or for analysis of Ucp1 mRNA levels (lower panels).
Mouse Embryonic Fibroblasts (MEFs) were isolated at E13.5 as previously described^42. For insulin stimulation, primary MEFs were serum starved (0% FBS) for 12 h, followed by 60 min incubation with PBS and then stimulated with 1 μg/ml of insulin (Sigma) during 30 min. For oncogenic transformation, primary MEFs were retrovirally transduced with pLXSN-neo-E6 and either pWZL-blast-middle-T (kindly provided by Jean Zhao, Dana-Farber Cancer Institute, Boston) or pBABE-puro-EGFRL858R (kindly provided by William Sellers and Matthew Meyerson, Addgene plasmid #11012)^43. After the corresponding drug selection 20,000 cells were plated in 10 cm diameter plates, and 2 weeks later were fixed and stained with 20% Giemsa. Immortalized brown adipocyte cell lines were obtained from the interscapular BAT of 3-5 day-old neonates, treated with and cultured as previously described^33. For immortalization, cultures were retrovirally transduced with Large-T antigen (in vector pBABE-puro, kindly provided by James de Caprio, Dana Farber Cancer Institute, Boston). For the reprogramming of 3T3-L1 adipocytes into brownadipocytes, we followed the method previously reported^50. Briefly, 3T3-L1 cells were retrovirally transduced with pBABE-puro-Cebpb (kindly provided by Roger R. Gomis, IRB, Barcelona). After drug selection with puromycin, cells were grown to confluence and subsequently cultured for 48 h with “differentiation medium” (DMEM 10% FBS, 20 nM insulin, 1 nM T3, 1 μM rosiglitazone, 0.5 mM isobutylmethylxanthine, 125 nM indomethacin, 5 μM dexamethasone). After this, cells were exposed to “maintenance medium” (DMEM 10% FBS, 20 nM insulin, 1 nM T3) for 4 days. For the experiment shown in FIG. 4d, differentiated 3T3-L1/Cebpβ or non-differentiated neonatal immortalized brown adipocytes cultures were PBS washed and treated with “regular medium” (DMEM 10% FBS) containing 10 μM forskolin (Sigma) and/or or 1 μM Compound A for 4 h.
Immortalized brown adipocytes were obtained from the interscapular BAT of 3-5 day-old neonates and immortalized by retroviral transduction of Large-T antigen (in vector pBABE-puro, kindly provided by James de Caprio, Dana Farber Cancer Institute, Boston). […]
For RNA analyses, total RNA from pre-brown adipocytes was extracted using TRIZOL (Invitrogen). Reverse transcription was performed using random primers and Ready-To-Go™ You-Prime First-Strand Beads (GE Healthcare). Quantitative real time-PCR was performed using DNA Master Sybr Green I mix (Applied Biosystems) in an ABI PRISM 7700 thermocycler (Applied Biosystem). […]

For another experiment, the target named is PI3K isoform p110γ (Homo sapiens, UniProt P48736). Put plainly: Inhibition of PI3K isoform p110γ. It counts as biochemical.
Where [3] appears, read: alone or in combination with forskolin.

Sequence of PI3K isoform p110γ (P48736 whole entry, canonical isoform): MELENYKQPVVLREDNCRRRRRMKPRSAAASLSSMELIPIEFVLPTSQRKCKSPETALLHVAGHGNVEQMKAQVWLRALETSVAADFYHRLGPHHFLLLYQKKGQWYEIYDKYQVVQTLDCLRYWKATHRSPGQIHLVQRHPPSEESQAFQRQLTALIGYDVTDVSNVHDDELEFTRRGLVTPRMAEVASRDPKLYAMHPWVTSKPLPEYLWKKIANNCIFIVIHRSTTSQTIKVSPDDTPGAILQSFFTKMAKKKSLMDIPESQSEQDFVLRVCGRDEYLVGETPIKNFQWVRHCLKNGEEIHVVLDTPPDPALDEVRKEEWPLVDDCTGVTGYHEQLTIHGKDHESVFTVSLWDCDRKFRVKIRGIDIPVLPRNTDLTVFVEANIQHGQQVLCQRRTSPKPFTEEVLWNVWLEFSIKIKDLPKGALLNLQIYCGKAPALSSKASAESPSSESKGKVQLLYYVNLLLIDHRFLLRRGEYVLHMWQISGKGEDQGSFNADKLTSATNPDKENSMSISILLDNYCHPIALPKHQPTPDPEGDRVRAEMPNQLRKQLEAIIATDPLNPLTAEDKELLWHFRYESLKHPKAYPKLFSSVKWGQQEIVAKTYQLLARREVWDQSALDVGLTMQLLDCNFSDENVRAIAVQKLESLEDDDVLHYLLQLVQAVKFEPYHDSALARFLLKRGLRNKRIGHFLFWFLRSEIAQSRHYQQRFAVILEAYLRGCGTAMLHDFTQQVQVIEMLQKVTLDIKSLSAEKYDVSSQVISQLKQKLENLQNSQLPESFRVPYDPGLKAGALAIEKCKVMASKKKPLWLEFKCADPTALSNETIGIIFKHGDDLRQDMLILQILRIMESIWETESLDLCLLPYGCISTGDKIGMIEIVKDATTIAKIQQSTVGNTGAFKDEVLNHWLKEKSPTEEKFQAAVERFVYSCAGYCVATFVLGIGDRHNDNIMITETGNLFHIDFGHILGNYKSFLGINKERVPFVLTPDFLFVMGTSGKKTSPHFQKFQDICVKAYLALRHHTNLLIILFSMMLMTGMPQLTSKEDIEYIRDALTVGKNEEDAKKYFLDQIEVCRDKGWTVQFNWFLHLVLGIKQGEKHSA

The Ki is the equilibrium dissociation constant of an inhibitor or competing ligand from its target. For `CS(=O)(=O)N1CCN(Cc2cn3c(Cl)c(-c4cnc(N)nc4)nc(N4CCOCC4)c3n2)CC1` [Compound A], the “levels of phospho-Akt” value in experiment [1] is given as “severe decrease”. In experiment [1] (setting [3]), the Pgc1α expression entry is on record as “upregulation” and the Ucp1 expression result is given as “upregulation”. In addition, in experiment [2], the “fat mass (DXA)” value was “loss of fat mass” and the “lean mass (DXA)” value is reported as “not to a loss of lean mass”. Moreover, in the experiment on pre-brown adipocytes (1 microM), the “inhibition of the phosphorylation of Akt” value is given as “measurable inhibition”. The “up-regulation of Ucp1 mRNA levels” value with pre-brown adipocytes (10-20 microM) is given as 8-20 fold. The “inhibition of the phosphorylation of Akt” value in the experiment on pre-brown adipocytes (10 microM) is “complete inhibition”. The “expression of Ucp1” value with pre-brown adipocytes (immortalized neonatal brown adipocytes (three independent lines), 1 μM) is given as “upregulated”. At PI3K isoform p110γ, the inhibition constant (Ki) is greater than 100 nM.
